{"source": "patent US5945509A", "about": "“Glutamate receptor compositions and method” (The Salk Institute for Biological Studies, priority 1995, dated 1999)", "key": {"GluR1": {"target": "T1, GluR1 (Rattus norvegicus, UniProt P19490)", "T1 construct": "expressed in transfected cells; host or cells: Xenopus oocytes injected with in vitro transcribed pGluR1 sense RNA", "T1 sequence (P19490 19-907)": "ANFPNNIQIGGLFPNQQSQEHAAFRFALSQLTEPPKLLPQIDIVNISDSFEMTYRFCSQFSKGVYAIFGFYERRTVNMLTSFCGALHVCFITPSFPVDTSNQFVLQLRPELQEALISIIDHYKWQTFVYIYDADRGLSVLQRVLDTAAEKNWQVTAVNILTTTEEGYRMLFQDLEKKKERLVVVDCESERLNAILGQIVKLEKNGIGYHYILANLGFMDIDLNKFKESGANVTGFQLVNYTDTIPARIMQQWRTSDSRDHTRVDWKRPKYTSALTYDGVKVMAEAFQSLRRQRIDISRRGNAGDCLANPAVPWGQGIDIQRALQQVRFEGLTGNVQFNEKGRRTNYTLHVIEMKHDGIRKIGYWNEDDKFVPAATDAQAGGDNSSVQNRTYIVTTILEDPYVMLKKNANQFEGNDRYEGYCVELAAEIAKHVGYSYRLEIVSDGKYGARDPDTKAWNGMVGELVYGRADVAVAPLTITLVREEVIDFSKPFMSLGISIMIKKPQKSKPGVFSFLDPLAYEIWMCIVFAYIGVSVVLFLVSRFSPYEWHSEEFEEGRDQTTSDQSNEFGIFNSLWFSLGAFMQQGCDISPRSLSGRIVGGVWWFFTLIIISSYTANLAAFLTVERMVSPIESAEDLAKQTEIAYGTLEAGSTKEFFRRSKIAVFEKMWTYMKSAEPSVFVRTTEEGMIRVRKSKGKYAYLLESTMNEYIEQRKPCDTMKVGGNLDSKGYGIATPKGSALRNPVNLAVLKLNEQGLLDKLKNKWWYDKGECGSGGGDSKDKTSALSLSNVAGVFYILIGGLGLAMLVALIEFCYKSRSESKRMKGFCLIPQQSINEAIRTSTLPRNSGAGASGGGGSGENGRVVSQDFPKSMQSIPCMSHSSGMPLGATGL", "test": "Electrophysiological recording in Xenopus oocytes injected with GluR1 in vitro RNA", "assay_type": "cell-based", "method": "It depends upon the fact that when foreign mRNA is injected into Xenopus oocytes, the mRNA is translated into functional protein.\nEither a λZAP cDNA preparation, or a plasmid containing the cDNA to be tested, are cut downstream from the cDNA insert with a restriction enzyme. The post-restriction digest is digested with Proteinase K and then extracted with two phenol: chloroform (1:1) extractions. The resulting DNA fragments are then ethanol precipitated. The precipitated fragments are mixed with either T3 RNA polymerase (to make sense strand), or T7 RNA polymerase (to make anti-sense strand), plus rATP, rCTP, rGTP, rUTP, and RNase inhibitor. Simultaneously, the RNA transcripts are capped with a sodium diguanosine triphosphate [G(5')ppp(5')G] cap. The water used for the above procedures is treated with diethylpyrocarbonate to inactivate RNases.\nThe in vitro synthesized mRNA transcripts are injected into Xenopus oocytes. 50 nl of an RNA solution, 0.2-0.6 mg/ml, is injected into the stage V oocytes. The injected oocytes are incubated at 16° C. in Barth's medium for 2-7 days before they are analyzed for the presence of functional receptors.\nVoltage recordings are made by penetrating the oocyte with a micro-electrode filled with 3M KCl and connected to the bridge circuit of an appropriate voltage clamp unit, e.g., the Dagan 8500 voltage clamp unit. Voltage recordings are preferably obtained with two electrodes, a voltage electrode filled with 3M KCl and a current electrode filled with 0.25 M CsCl, 0.25 M CsF and 50 mM EGTA (ethylene glycol tetraacetic acid).\nOocytes employed herein are obtained from ovarian tissue from anesthetized adult female Xenopus. The ovarian tissue is treated with collagenase, 2 mg/ml, for two hours and then the ovarian epithelium and follicular cells are dissected away.\nThe plasmid pGluR1 was subsequently rescued from bacteriophage λZAPII-GluR1.\n3 days prior to the recording. The oocytes were voltageclamped at -70 mV,\napplied by rapid superfusion, with 5 minute intervals between drugs. Peak\ncurrents were recorded; each number represents the average of 3 recording\nfrom 3 different oocytes, ± SEM.\n(§1) The data in FIG. 3B represent the responses of oocytes to the indicated agonists measured 3 days after injection with GluR1 (2 ng) or GluR3 (2 ng) RNA or adult rat brain hippocampus poly(A)^+ RNA (~50 ng). All values are normalized to the response obtained with […] and are presented as the mean±S.E.M. with n≥3 for all measurements."}, "GluR5-2": {"target": "GluR5-2 (Rattus norvegicus, UniProt P22756)", "sequence (P22756 31-949)": "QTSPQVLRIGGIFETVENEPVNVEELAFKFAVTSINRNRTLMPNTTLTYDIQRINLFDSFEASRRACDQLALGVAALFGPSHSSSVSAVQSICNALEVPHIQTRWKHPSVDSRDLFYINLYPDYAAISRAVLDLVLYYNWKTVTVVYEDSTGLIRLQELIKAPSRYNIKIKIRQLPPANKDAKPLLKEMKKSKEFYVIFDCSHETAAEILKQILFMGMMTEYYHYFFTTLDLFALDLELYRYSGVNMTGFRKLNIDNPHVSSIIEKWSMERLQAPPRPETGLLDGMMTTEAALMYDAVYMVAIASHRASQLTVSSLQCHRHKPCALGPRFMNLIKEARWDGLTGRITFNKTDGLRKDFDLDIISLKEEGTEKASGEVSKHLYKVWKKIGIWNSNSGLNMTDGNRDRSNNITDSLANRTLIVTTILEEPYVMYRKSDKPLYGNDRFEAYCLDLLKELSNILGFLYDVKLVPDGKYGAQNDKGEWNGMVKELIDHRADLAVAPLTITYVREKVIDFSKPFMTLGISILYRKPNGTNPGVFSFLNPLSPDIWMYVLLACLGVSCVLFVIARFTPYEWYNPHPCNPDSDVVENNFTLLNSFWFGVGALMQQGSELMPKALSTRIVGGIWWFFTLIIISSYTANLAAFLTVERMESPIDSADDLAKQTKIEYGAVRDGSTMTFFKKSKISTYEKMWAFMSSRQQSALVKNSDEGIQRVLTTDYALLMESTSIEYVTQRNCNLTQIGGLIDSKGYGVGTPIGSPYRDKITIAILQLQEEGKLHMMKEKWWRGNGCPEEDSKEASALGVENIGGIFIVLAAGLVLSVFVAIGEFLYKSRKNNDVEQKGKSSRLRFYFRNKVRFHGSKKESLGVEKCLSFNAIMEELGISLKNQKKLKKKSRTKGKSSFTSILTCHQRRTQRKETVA", "assay_type": "cell-based", "excerpt": "(§2) In vitro synthesized GluR5-1 and GluR5-2 cRNAs were individually expressed in Xenopus oocytes."}, "homomeric GluR6 receptor": {"target": "T2, homomeric GluR6 receptor (Rattus norvegicus, UniProt P42260, I567V/Q621R/Y571C)", "T2 construct": "engineer a cDNA clone encoding the entire open reading frame of the GluR6 protein; expressed in transfected cells; host or cells: Xenopus oocytes injected with in vitro transcribed GluR6 RNA", "T2 sequence (P42260 with tags, fused parts or gaps I567V/Y571C/Q621R)": "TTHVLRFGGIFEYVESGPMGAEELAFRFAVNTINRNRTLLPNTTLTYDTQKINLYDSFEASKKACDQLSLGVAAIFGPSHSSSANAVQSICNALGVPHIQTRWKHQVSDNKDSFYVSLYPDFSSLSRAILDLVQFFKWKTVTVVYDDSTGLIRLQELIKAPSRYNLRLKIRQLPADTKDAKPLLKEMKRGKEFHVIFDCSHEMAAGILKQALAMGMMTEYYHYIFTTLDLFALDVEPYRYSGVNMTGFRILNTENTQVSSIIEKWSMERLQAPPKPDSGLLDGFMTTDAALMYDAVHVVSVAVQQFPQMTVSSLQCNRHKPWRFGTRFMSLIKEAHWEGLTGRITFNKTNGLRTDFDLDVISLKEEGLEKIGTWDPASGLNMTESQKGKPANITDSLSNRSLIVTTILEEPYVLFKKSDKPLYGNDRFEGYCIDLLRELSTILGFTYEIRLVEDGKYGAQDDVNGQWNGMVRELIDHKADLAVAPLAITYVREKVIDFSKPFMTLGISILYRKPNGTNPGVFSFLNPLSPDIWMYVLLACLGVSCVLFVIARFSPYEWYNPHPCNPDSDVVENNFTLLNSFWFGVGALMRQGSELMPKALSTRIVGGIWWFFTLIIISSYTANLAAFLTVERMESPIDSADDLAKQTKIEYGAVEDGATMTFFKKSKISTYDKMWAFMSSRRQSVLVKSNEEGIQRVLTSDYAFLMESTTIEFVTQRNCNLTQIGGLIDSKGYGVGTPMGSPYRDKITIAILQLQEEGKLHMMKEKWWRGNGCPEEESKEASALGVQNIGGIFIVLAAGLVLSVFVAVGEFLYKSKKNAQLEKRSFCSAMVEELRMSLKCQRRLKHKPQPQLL", "test": "Current recording in Xenopus oocytes injected with GluR6 RNA (homomeric GluR6 receptor)", "assay_type": "cell-based", "conditions": "for current measured at -70 mV: 10 μM kainate"}, "[1]": {"test_system": "oocytes injected with poly(A)+ RNA isolated from rat forebrain", "assay_type": "cell-based", "conditions": "2-10 days after injection"}, "GluR3": {"test_system": "GluR3", "assay_type": "cell-based, rat", "method": "Thus, oocytes were injected with in vitro synthesized RNA transcripts derived from individual cDNA clones.\nas §1"}, "GluR5-1": {"test_system": "GluR5-1", "assay_type": "cell-based, rat", "excerpt": "as §2"}, "[2]": {"test_system": "oocytes injected with pool of in vitro transcripts from rat forebrain cDNA library", "test": "Voltage recordings from oocytes injected with pooled in vitro transcripts of the λZAPII RTB1 cDNA library", "assay_type": "cell-based", "conditions": "10 days after injection", "method": "A directional cDNA library (λZAPII RTB1; complexity: 8×10^5 elements), consisting of 18 independent sublibraries of 44,000 clones each, was constructed from this poly(A)^+ RNA using the bacteriophage expression vector λZAPII. A pool of in vitro transcripts, comprised of transcripts made separately from all 18 amplified sublibraries, was injected into oocytes. […] Subsequently, pools of 44,000 clones (=the single sublibraries), 4,000, 400 and 40 clones were tested."}, "[3]": {"conditions": "oocytes held at -100 mV, without Con A, AMPA 100 μM"}, "[4]": {"conditions": "QUIS 10 μM, AMPA 50 μM, GLU 100 μM, NMDA 30 μM plus 10 μM glycine, APB 50 μM, -70 mV, 3 days after 2 ng RNA"}}, "note": "Read-outs that look alike come from different tables or passages of the source.", "data": [{"compound": "O=C(O)c1cc(=O)c2ccccc2[nH]1", "note": "[Kynurenic acid]", "values": [{"measurement": "Compound Alone (%)", "setting": "GluR1", "result": "3.4 ± 0.2", "unit": "%"}]}, {"compound": "N[C@@H](Cn1oc(=O)[nH]c1=O)C(=O)O", "note": "[quisqualate, quisqualic acid]", "values": [{"measurement": "membrane depolarization elicited by agonist (in words)", "setting": "GluR5-2", "result": "did not elicit membrane depolarizations"}, {"measurement": "current evoked by agonist (in words)", "setting": "homomeric GluR6 receptor", "result": "activated only small inward currents"}, {"measurement": "effect on kainate-evoked current (in words)", "setting": "homomeric GluR6 receptor; without Con A", "result": "attenuated a subsequent kainate evoked current"}]}, {"compound": "CN1CCCC1c1cccnc1", "note": "(stereo not shown) [nicotine]", "values": [{"measurement": "response evoked by unrelated neurotransmitter receptor agonists", "setting": "GluR1", "result": "failed to evoke responses"}]}, {"compound": "CN[C@H](CC(=O)O)C(=O)O", "note": "[NMDA, N-methyl-D-aspartic acid]", "values": [{"measurement": "membrane depolarization elicited by agonist (in words)", "setting": "GluR5-2", "result": "did not elicit membrane depolarizations"}, {"measurement": "response to selective agonists (in words)", "setting": "[1]", "result": "elicited smooth responses with fast onsets"}, {"measurement": "response of Con A treated oocytes (in words)", "setting": "homomeric GluR6 receptor", "result": "did not respond"}, {"measurement": "response evoked by glutamate receptor agonists", "setting": "GluR1", "result": "no responses"}, {"measurement": "response of oocytes to agonist (in words)", "setting": "GluR1", "result": "No detectable responses"}, {"measurement": "response of oocytes to agonist (in words)", "setting": "GluR3", "result": "No detectable responses"}, {"measurement": "membrane depolarization elicited by agonist (in words)", "setting": "GluR5-1", "result": "did not elicit membrane depolarizations"}, {"measurement": "response to agonist (in words)", "setting": "[2]", "result": "No responses"}]}, {"compound": "NCCCC(=O)O", "note": "[γ-aminobutyric acid]", "values": [{"measurement": "response evoked by unrelated neurotransmitter receptor agonists", "setting": "GluR1; concentrations as high as 1 mM", "result": "failed to evoke responses"}]}, {"compound": "Cc1onc(O)c1CC(N)C(=O)O", "note": "(stereo not drawn) [AMPA, α-amino-3-hydroxy-5-methyl-isoxazole-4-propionic acid]", "values": [{"measurement": "response of Con A treated oocytes (in words)", "setting": "homomeric GluR6 receptor", "result": "did not respond"}, {"measurement": "effect of coapplication on kainate-evoked (1 μM) responses", "setting": "homomeric GluR6 receptor; AMPA 100 μM, Con A treated oocytes", "result": "no effect"}, {"measurement": "current evoked by agonist (in words)", "setting": "homomeric GluR6 receptor; [3]", "result": "did not evoke any detectable current"}]}, {"compound": "C=C(C)[C@H]1CN[C@H](C(=O)O)[C@H]1CC(=O)O", "note": "[kainate, kainic acid]", "values": [{"measurement": "current measured at -70 mV", "setting": "homomeric GluR6 receptor; Con A treated, modified Ringer solution (NaCl substituted by sodium methanesulfonate)", "result": 330, "unit": "nA"}, {"measurement": "current measured at -70 mV", "setting": "homomeric GluR6 receptor; Ringer solution, after Con A treatment", "result": 2.3, "unit": "μa"}, {"measurement": "current measured at -70 mV", "setting": "homomeric GluR6 receptor; Ringer solution, before Con A treatment", "result": 30, "unit": "nA"}, {"measurement": "time for full recovery from desensitization", "setting": "homomeric GluR6 receptor; after 100 μM kainate for 30 seconds", "result": "approximately 15 minutes"}, {"measurement": "response of Con A treated oocytes (in words)", "setting": "homomeric GluR6 receptor; aspartate 100 μM, NMDA 100 μM with 3 μM glycine, AMPA 10-1000 μM", "result": "responded"}, {"measurement": "current evoked by agonist (in words)", "setting": "homomeric GluR6 receptor; [3]", "result": "evoked inward currents that desensitized"}, {"measurement": "100% current response", "setting": "GluR1; 30 μM kainate, -70 mV, depending on the oocyte", "result": "40-200 nA"}]}, {"compound": "N[C@H](CCC(=O)NCC(=O)O)C(=O)O", "note": "[γ-DGG, D-glutamylglycine]", "values": [{"measurement": "Compound Alone (%)", "setting": "GluR1", "result": "-0.1 ± 0.5", "unit": "%"}]}, {"compound": "NCCc1c[nH]c2ccc(O)cc12", "note": "[serotonin]", "values": [{"measurement": "response evoked by unrelated neurotransmitter receptor agonists", "setting": "GluR1; concentrations as high as 1 mM", "result": "failed to evoke responses"}]}, {"compound": "NC(CCP(=O)(O)O)C(=O)O", "note": "(stereo not shown) [APB, 2-amino-4-phosphonobutyric acid]", "values": [{"measurement": "membrane depolarization elicited by agonist (in words)", "setting": "GluR5-2; KA 100 MM, AMPA 50 μM, quisqualate 10 μM, APB 100 μM, NMDA 100 μM with 10 μM glycine", "result": "did not elicit membrane depolarizations"}, {"measurement": "response to selective agonists (in words)", "setting": "[1]", "result": "gave no response"}, {"measurement": "response of oocytes to agonist (in words)", "setting": "GluR1; [4]", "result": "No detectable responses"}, {"measurement": "response of oocytes to agonist (in words)", "setting": "GluR3; [4]", "result": "No detectable responses"}, {"measurement": "membrane depolarization elicited by agonist (in words)", "setting": "GluR5-1; KA, AMPA 50 μM, quisqualate 10 μM, APB 100 μM, NMDA 100 μM with 10 μM glycine", "result": "did not elicit membrane depolarizations"}]}, {"compound": "concanavalin A [Con A]", "values": [{"measurement": "effect on desensitization", "setting": "homomeric GluR6 receptor; 10 μM Con A for 5 minutes", "result": "efficiently decreases desensitization"}]}, {"compound": "NCC(=O)O", "note": "[glycine]", "values": [{"measurement": "potentiation of the KA response", "setting": "GluR1", "result": "did not potentiate"}, {"measurement": "response evoked by unrelated neurotransmitter receptor agonists", "setting": "GluR1", "result": "failed to evoke responses"}]}, {"compound": "O=C(O)C1CN(CCCP(=O)(O)O)CCN1", "note": "(stereo not shown) [CPP, 3 (2carboxypiperazin-4-yl)propyl-1-phosphate]", "values": [{"measurement": "Compound Alone (%)", "setting": "GluR1", "result": "9.1 ± 0.7", "unit": "%"}]}, {"compound": "CCOC(=O)CC[C@H](N)C(=O)OCC", "note": "[GDEE, glutamate diethylester]", "values": [{"measurement": "Compound Alone (%)", "setting": "GluR1", "result": "24.8 ± 5.7", "unit": "%"}, {"measurement": "agonist properties (in words)", "setting": "GluR1; each at 1 mM", "result": "weak agonist properties"}]}, {"compound": "O=C(O)[C@H]1CCCN[C@H]1C(=O)O", "note": "(relative stereo) [PDA, 2,3cis-piperidine dicarboxylic acid]", "values": [{"measurement": "Compound Alone (%)", "setting": "GluR1", "result": "2.5 ± 0.7", "unit": "%"}]}, {"compound": "NC(CCCP(=O)(O)O)C(=O)O", "note": "(stereo not shown) [APV, 2amino-5-phospho-novaleric acid]", "values": [{"measurement": "Compound Alone (%)", "setting": "GluR1; % of the response evoked by 30 μM kainate immediately before drug application, compounds at 1 mM (kainate 30 μM), -70 mV, peak currents, 3 oocytes, ± SEM", "result": "3.1 ± 1.4", "unit": "%"}]}, {"compound": "N#Cc1cc2[nH]c(=O)c(=O)[nH]c2cc1[N+](=O)[O-]", "note": "[CNQX, 6-nitro-7-cyano-quinoxaline-2,3-dione]", "values": [{"measurement": "block of agonist-evoked responses (in words)", "setting": "homomeric GluR6 receptor", "result": "blocked both quisqualate and kainate-evoked responses"}]}]}
